These are literature values, as cited in US20230248672A1, “COMPOSITIONS COMPRISING GARDOS CHANNEL ANTAGONISTS AND THEIR USES” (ADIMABIO LLC, priority 2020, published 2023).

By log P is commonly meant the decadic logarithm of the partition coefficient of the neutral form, usually between octanol and water. Usually aqueous solubility stands for how much of the substance goes into solution per volume.

The structures appear in SMILES notation. Values after ≈ are worked out from the molar mass of the structure shown.

One data set has as its target Gardos channel (Homo sapiens, UniProt O15554).
Assay in data set [1]: not given
This is another data set of the same source.

Assay in data set [2]: not given
This is another data set of the same source.

For data set [3] the following is noted: rats, administered orally.
In data set [4] the test system is sickle cell disease patients.

As for `Clc1ccccc1C(c1ccccc1)(c1ccccc1)n1ccnc1` [Clotrimazole], at Gardos channel (normal and sickle erythrocytes), the “inhibition of the Gardos channel” value is “specific, potent inhibitor”.
With `NC(=O)C(c1ccccc1)(c1ccc(F)cc1)c1ccc(F)cc1` [senicapoc, 2,2-bis(4-fluorophenyl)-2-phenylacetamide], the “log P” value is 3.59. The aqueous solubility in data set [1] is 975 µg/mL (≈ 3.02 mM). For the same compound, the oral bioavailability in data set [2] is listed as 51%. The “time at which maximum concentration is attained” value in data set [3] is recorded as 4 h. For the same compound, in data set [4] (compared to placebo), the “rate of sickle cell painful crises” value was “no significant improvement”. Also, in data set [4] (dose of 10 mg, sickle cell disease patients), the tolerability entry is recorded as “well tolerated”. Besides, in data set [4] (sickle cell disease patients), the hemoglobin result is on record as “dose-dependent increase” and the markers of hemolysis entry is reported as “decrease”. Moreover, at Gardos channel (red blood cells), the “block of potassium efflux through the Gardos channel” value is on record as “selectively blocks”.
